Legend:
[1] = tested on: mouse hippocampal slice cultures; assay: Kainic acid neurodegeneration in hippocampal slice cultures (propidium iodide); type: cell-based
Procedure: We employed a standard technique of ex vivo experimentation to determine the efficacy of 2MeGlu, 2MeGln, and 4APA to prevent neurodegeneration. Mouse hippocampal slice cultures were prepared and then exposed to one of the three test compounds at either 5 or 50 μM for one hour. Then media was changed to contain either 2 or 5 μM kanic acid (KA) for 24 hr. […] After 24, the amount of neurodegeneration was assayed with propidium iodide staining. Increasing the dose of KA led to greater neurodegeneration at 5 μM than at 2 μM.

[2] = tested on: mouse cerebral synaptosomes; assay: Synaptosomal neurotransmitter uptake assay; type: cell-based; settings: 10 μM substrate; for transport into synaptosomes: 37° C.
Procedure: To each tube, 5 μL of a test compound solution (final concentration 10 μM) in Buffer KRP or Buffer KRP alone were added. Samples were incubated at 4° C. or 37° C. for 1, 10, or 30 min and then immediately centrifuged and washed twice by resuspension-centrifugation with Buffer S (0.5 mL). Resulting pellets were resuspended in 170 μL of 0.1% aqueous formic acid and mixed with 330 μL of ACN.
96-well plate experiments: 250 μL aliquots of the synaptosome suspension were transferred to two 0.8-mL 96 well plates, one on ice (0° C. samples only) and one in a thermoblock (37° C. samples only), and equilibrated for 10 min. 5 μL of a test compound (0.5 mM; final concentration: 10 μM) in Buffer KRP or Buffer KRP blank were added 10, 20 or 30 min before the incubation termination. “0 min” samples were prepared by placing the test compound solution in a separate pre-chilled V-shape bottom 2-mL 96 well plate; at the end of incubation 200 μL aliquots of all samples were transferred to the 2-mL 96 well plate and centrifuged (2,500 g for 15 min at 4° C.) immediately. The resulting pellets were rinsed with Buffer KRP, followed by centrifugation, twice, then resuspended in 200 μL of 60% ACN containing 2.5 μM Glu-d5 as internal standard and stored at −80° C. until analysis.
Synaptosome uptake and high potassium-induced release assays were performed as described in Example 1. Uptake assays used 250 μL aliquots of the synaptosome suspension transferred to a pre-chilled 0.8 mL 96 well plate. 5 μL of a test compound solution (0.5 mM; final concentration: 10 μM to compare directly to our previous work was added to each well and incubated at 0° C. or 37° C. After 10, 20 or 30 min, samples were chilled on ice and immediately sedimented (2,500 g for 15 min at 4° C.) and washed with Buffer S (0.5 mL, ×2). Resulting pellets were resuspended in 200 μL of 60% ACN containing 5 μM GABA-d6 and stored at −80° C. until analysis. Potassium-induced release assay used 500 μL aliquots of the synaptosome suspension transferred to pre-chilled microcentrifuge tubes. 2.5 μL of a test compound solution (20 mM; final concentration: 100 μM) in Buffer KRP was added to each tube and incubated for 15 min at 37° C., briefly chilled on ice, and then immediately sedimented (8,000 g for 4 min at 4° C.) and washed with Buffer KRP, followed by centrifugation, twice. The resulting pellets were resuspended in 500 μL of Buffer KRP or Buffer K-KRP and incubated for 5, 10 or 15 min at 37° C., sedimented (8,000 g for 4 min at 4° C.), and washed with Buffer KRP. Resulting pellets were resuspended in 400 μL of 60% ACN containing 2.5 μM GABA-d6 as internal standard and stored at −80° C. until analysis.

MPTP model of PD = assay: MPTP model of PD, fine motor kinematic score; type: in vivo, mouse; settings: 50 mg/kg/d IP, days −5 to 14
Procedure: Five groups of mice were treated with 40 mg/kg/d MPTP IP on days 1 and 2 and two concentrations of two test agents IP from days −5 to day 14 (FIG. 22). One group received vehicle, two groups received 5 or 50 mg/kg/d S-2MeGlu, and two groups received 5 or 50 mg/kg/d R-4APA. […] The high-precision fine motor kinematic protocol quantifies over 100 indices of gait and balance and integrates them into an overall kinematic score; higher score indicates greater impairment. […] Mice were sacrificed on day 15 and striatal dopamine as well as its major metabolites were quantified by HPLC with electrochemical detection.

Line 61 mice = assay: Transgenic α-synuclein mouse model, tapered beam test; type: in vivo
Text: Line 61 mice overexpress human α-synuclein under control of the mouse Thy-1 promoter. The transgene is X-linked so females have variable transgene expression; for this reason, we focused on male mice. […] Categorical data from the tapered beam task were unblinded and analyzed by X square test (P<0.005).

Compound	reduction of neurodegeneration ([1]; 50 μM compound, lower dose of KA (2 μM))	neuroprotection at the higher dose of KA ([1]; 5 or 50 μM compound, 5 μM KA)	transport into synaptosomes [2]	synaptosomal uptake, faster than the R enantiomer ([2]; temperature-dependent uptake)	rescue of motor deficit from MPTP (overall kinematic score) (MPTP model of PD)	body weight or deaths (Line 61 mice; 5 or 50 mg/kg/d IP, seven days)	motor function, tapered beam (Line 61 mice; 7 days IP, high dose (50 mg/kg/d) S-2MeGlu, either dose (5 or 50 mg/kg/d) R-4APA)	α-synuclein accumulation in brain by immunohistochemistry vs vehicle (Line 61 mice; Line 61 mice)
CC(N)(CCC(N)=O)C(=O)O (racemic) [rac-2MeGln, rac-2-methylglutamine]	approximately 50%	Neither dose of 2MeGlu or 2MeGln was neuroprotective	–	–	–	–	–	–
C[C@@](N)(CCC(=O)O)C(=O)O [(R)-2MeGlu, (R)-2-methylglutamic acid]	–	–	transported into synaptosomes	–	–	–	–	–
C[C@](N)(CCC(=O)O)C(=O)O [(S)-2MeGlu, (S)-2-methylglutamic acid]	–	–	transported into synaptosomes	approximately 3 fold	significantly rescued the motor deficit from MPTP	no change in body weight or deaths	improved motor function similar to WT mice	no significant change
